“Also recorded” adds a separate entry of the source.
Legend:
[1] = test system: astroglial primary cultures (APC); test: Aβ42 uptake from culture medium by astroglial primary cultures (ELISA of supernatant); type: cell-based, mouse; conditions: astrocytes (APC); 1000 pg/ml Aβ42 in medium; 48 h of incubation
Description: Astroglia-rich primary cultures (APC) were prepared from newborn C57/BL6 (Charles River) mouse brains as described elsewhere (Lourhmati A, Buniatian G H, Paul C, et al. Age-dependent astroglial vulnerability to hypoxia and glutamate: the role for erythropoietin. PLoS One 2013; 8:e77182.). Briefly, the cells obtained from 5-7 brains of newborn littermates were mechanically dissociated, centrifuged and plated onto cell culture flasks (1×10^6 cells/75 cm2) in DMEM with 4.5 g/l Glucose supplemented with 10% foetal calf serum, 100 μg/ml streptomycin sulphate, 100 units/ml penicillin G and […] (Biochrom AG, Berlin, Germany) in a humidified 10% CO2 atmosphere at 37° C.
(§1) After 24 h, supernatant was centrifuged at 1500 g for 15 minutes and frozen at −80° C. until analysis.
(§2) Therefore, as a control for inherent decrease of amyloid concentrations control samples containing only culture medium, without cells (w/c) were incubated with Aβ for the same periods of time.

M1-4HSC lysates = test: Degradation of Aβ42 and Aβ40 by M1-4HSC lysates (ELISA); type: in vitro ADME; conditions: for Degradation by M1-4HSC lysates: 1000 pg/ml, normalized to control without cells
M1-4HSC = test: Aβ42 uptake from culture medium by M1-4HSC (ELISA of supernatant); type: cell-based
Description: as §1, §2

Col-1 in M1-4HSC = test: Col-1 production in M1-4HSC treated with Aβ (ELISA); type: cell-based; conditions: M1-4HSC culture
[2] = test system: eNOS in hSEC (human liver endothelial cells); test: eNOS synthesis by hSEC treated with Aβ (ELISA); type: cell-based
Description: Means±SEM, *p<0.05, **p<0.01, ***p<0.001.

[3] = Loss of Aβ in cell culture medium without cells (control samples); type: physicochemical
Description: as §2

TGF-β in M1-4HSC = test: TGF-β level in M1-4HSC treated with Aβ (Western blot, densitometry); type: cell-based; conditions: for Expression of TGF-β: Western blot; for Intensity of TGF-β bands (55 kDa, 44 kDa, 23 kDa) adjusted to GAPDH: densitometric calculations vs. untreated ctrl.
Description: (§3) The data are shown as means±SEM, *p<0.05, ***p<0.001.

LX-2 = test: Aβ42 uptake from culture medium by LX-2 (ELISA of supernatant); type: cell-based, human; conditions: 50,000-200,000 cells
Description: as §1

α-SMA in M1-4HSC = test: α-SMA level in M1-4HSC treated with Aβ (Western blot); type: cell-based; conditions: 1000 pg/ml
Description: as §3

HSC-T6 = test: Aβ42 uptake from culture medium by HSC-T6 (ELISA of supernatant); type: cell-based, rat
Description: as §1, §2

Primary murine HSC = test: Inhibition of Aβ40 and 42 degradation by HSC in response to sacubitrilat (ELISA of supernatant); type: cell-based; conditions: 48 h, with vs. without LBQ657
Description: FIG. 9 (A-B) shown an inhibition of Aβ40 and 42 degradation by HSC in response to sacubitrilat (LBQ657). Primary murine HSC were incubated with 1000 pg/ml Aβ40 or 42 with and without LBQ657. The content of Aβ in the cell culture supernatant was measured by ELISA 48 h after incubation with Aβ40 or 42 with and without LBQ657.

[4] = test system: zinc-dependent Aβ-degrading enzymes (ACE, ECE, NEP) in M1-4HSC lysates; test: Inhibition by EGTA of Aβ40/42 degradation in M1-4HSC lysates; type: biochemical; conditions: 5 mM EGTA; 30 and 60 minutes
Description: To quantify the Aβ42-degading ability of M1-4HSC lysate's, cell lysates from M1-4HSC (50,000 cells/ml) were obtained by 2 freezing thawing cycles at −80° C. and centrifugation for 10 min at 20,000 g.
To confirm that the disappearance of Aβ from HSC lysates reflects its enzymatic degradation rather than non-specific loss that can occur in cell lysates the activity of zinc-dependent AR-degrading enzymes comprising angiotensin converting enzyme (ACE) and endothelin converting enzyme (ECE) known to be present in HSC1 as well as NEP was blocked by 5 mM EGTA (white bars in FIG. 1D and FIG. 1E).

[5] = test system: VEGF in liver sinusoidal endothelial cells; test: VEGF expression in liver sinusoidal endothelial cells exposed to Aβ; type: cell-based
[6] = after 30 minutes of incubation with M1-4HSC lysates

Compound | Level compared to the initial level in control samples without cell lysates (M1-4HSC lysates; [6]) [%] | Degradation by M1-4HSC lysates (M1-4HSC lysates; after 30 minutes) [%] | Col-1 production (in words) (Col-1 in M1-4HSC) | eNOS synthesis [2] | Expression of TGF-β (TGF-β in M1-4HSC) | Intensity of TGF-β bands (55 kDa, 44 kDa, 23 kDa) adjusted to GAPDH (TGF-β in M1-4HSC) | Expression of α-SMA (α-SMA in M1-4HSC) | further results
amyloid beta 42 [Aβ42] | 50 | 50 | suppression of Col-1 production | upregulation of eNOS synthesis | reduced the expression | significantly decreased intensity | reduced the expression | Aβ42 internalized by cells, of the remaining part available in culture medium [1]: 28%; Uptake of Aβ42 vs. APC (decrease in cell culture supernatant) (M1-4HSC; M1-4HSC vs. APC, ELISA): two-fold higher uptake; Aβ42 internalized by cells, of the remaining part available in culture medium (M1-4HSC; M1-4HSC, 1000 pg/ml Aβ42 in medium, 48 h of incubation): 55%; Peptide absorbed on plastic carrier ([3]; from 1000 pg/ml Aβ42 in culture medium, after 48 h of incubation): about 50%; Suppression of TGF-β synthesis, Aβ42 compared with Aβ40 (TGF-β in M1-4HSC): more potent than Aβ40; Amount of Aβ42 internalized by LX-2 (LX-2): grew with increasing number of cells in culture; Uptake of Aβ42 vs. APC (decrease in cell culture supernatant) (HSC-T6): two-fold higher uptake
amyloid beta 40 [Aβ40] | 50 | 50 | only a slight reduction | – | reduced the expression | capable of decreasing only the 44 kDa band | reduced the expression | Level compared to the initial level in control samples without cell lysates (M1-4HSC lysates; after 60 minutes of incubation with M1-4HSC lysates): 25%; Degradation by M1-4HSC lysates (M1-4HSC lysates; after 60 minutes): 75%
C[C@H](C[C@@H](Cc1ccc(-c2ccccc2)cc1)NC(=O)CCC(=O)O)C(=O)O [LBQ657, Sacubitrilat] | – | – | – | – | – | – | – | Aβ40 degradation by HSC (content of Aβ in supernatant) (Primary murine HSC; 1000 pg/ml Aβ40): Decreased degradation of Aβ; Aβ42 degradation by HSC (content of Aβ in supernatant) (Primary murine HSC; 1000 pg/ml Aβ42): Decreased degradation of Aβ
O=C(O)CN(CCOCCOCCN(CC(=O)O)CC(=O)O)CC(=O)O [EGTA] | – | – | – | – | – | – | – | Effect on degradation of Aβ40/42 by M1-4HSC lysates [4]: dramatically inhibited; also recorded: abolished the degradation
amyloid beta [Aβ] | – | – | – | increased synthesis of eNOS | – | – | – | Loss of Aβ after incubation with cell culture medium in the absence of cells ([3]; 24-48 h, data not shown): over 50%; Expression of liver permeability marker VEGF [5]: increase in expression

From patent US20220088130A1, “COMPOUNDS AND METHODS FOR TREATING LIVER DISEASES” (Eberhard Karls Universität Tübingen Medizinische Fakultät, priority 2019, published 2022)
